Source: ChEMBL document CHEMBL3507680, “University of Dundee, Gates Library screen for HepG2 cell viability”

Assay: Human HepG2 cell viability assay in 384 well format
Assay type: toxicity, cell-based
Design: dose 125 nL, time 70.5 hour; cytotoxicity at 70.5 h: concentration not given beside the values
Conditions: HepG2 cells, read-out: Inhibition

In order of rising cytotoxicity at 70.5 h:
1. Cc1cc(O)c(OCC(=O)Nc2nccs2)cn1  -21.7%
2. COc1ccc(Nc2nc3c(C)nn(C)c3c(=O)n2C)c(OC)c1  -18.2%
3. Cc1nc(CN2CCCN(C(=O)C3(C#N)CCCCC3)CC2)cs1  -16.4%
4. CCc1n[nH]c(C2CN(C(=O)c3cnc[nH]3)CCO2)n1 (configuration not stated)  -15.6%
5. Cc1nnc(CN2CCN(CC(O)c3cccc(F)c3)CC2)n1C (configuration not stated)  -15.6%
6. Cc1cccc(C(=O)N(C)CC(=O)N2CCCC2)c1C  -14.8%
7. O=C(CCSc1ccc(F)cc1)N1CCN(c2cnccn2)CC1  -14.2%
8. CCCS(=O)(=O)N1CCOC2(CCCN(c3ncc(F)cn3)C2)C1 (configuration not stated)  -13.3%
9. Cc1ccc(CC(=O)N2Cc3nccn3CC(CN(C)C)C2)cc1 (configuration not stated)  -13.3%
10. COc1ccccc1CC(=O)NS(=O)(=O)c1ccc(C(N)=O)cc1  -12.7%
11. CCSCCOC(=O)CCCc1ccc2c(c1)CC(=O)N2  -12.3%
12. Cc1c(C2N3C[C@]4(C)CN2C[C@](C)(C3)C4=O)[nH]c(=O)[nH]c1=O (some centres not stated)  -11.7%
13. COc1ccnc(NC(=O)c2ccsc2)c1  -10.1%
14. CNC(=O)c1nc2c(s1)CCN(C(=O)c1cccc(OC)c1)CC2  -10%
15. N#CCC1CC(c2ccc(F)cc2)=NO1 (configuration not stated)  -10%
16. Cc1nc(N)c2ccc(C3CCCN3)nc2n1 (configuration not stated)  -9.62%
17. N[C@H]1CN(C(=O)c2ccccc2Oc2ccccc2)C[C@@H]1C1CC1  -9.43%
18. CCc1cn[nH]c1C1CCN(C(=O)c2cc(C(C)=O)c(C)[nH]c2=O)CC1  -9.17%
19. CN(C)c1ncc(CNS(=O)(=O)c2cc(F)ccc2Cl)n1C  -9.08%
20. Cc1cc2occ(CC(=O)N3CCC4(CCCN(C)C4=O)C3)c2cc1Cl (configuration not stated)  -8.33%
21. Cc1ccc(Nc2nccc(C3CCN(CC(N)=O)C3)n2)nc1 (configuration not stated)  -8.32%
22. CC(NC(=O)NCCN1CCCC1)c1nncn1C (configuration not stated)  -8.29%
23. Cc1ccc(CNC(=O)N2CCCCC2CCNS(C)(=O)=O)cc1 (configuration not stated)  -8.15%
24. CCn1nnnc1-c1cccc(NC(=O)CCn2cc(C)cn2)c1  -7.36%
25. O=C(NCC[S+]([O-])c1ccccc1)NCC(F)(F)F (configuration not stated)  -7.27%
26. Cc1cc2ccccc2n1CCC(=O)N1CCCCC1CCO (configuration not stated)  -6.95%
27. Cc1cccnc1CNC[C@H]1Cn2cc(-c3ccccc3)nc2CO1  -6.83%
28. CCc1nc(C)c(CC(=O)N2CCC3(CC2)OCCCC3O)c(=O)[nH]1 (configuration not stated)  -6.44%
29. COC(=O)CCC(=O)N1CCCC2(CCCN2Cc2cccc(F)c2)C1 (configuration not stated)  -6.42%
30. CN(C)C(CNC(=O)NCc1ccco1)c1cccs1 (configuration not stated)  -6.4%
31. COCCNc1nnc(S(=O)(=O)CCC(C)(C)C#N)s1  -5.9%
32. Cc1ccccc1SCC(=O)N[C@H]1CC[C@H](n2cnnc2)CC1  -5.74%
33. Cc1cc(C)n(CC2CN(Cc3nc4ccccc4s3)CCO2)n1 (configuration not stated)  -5.7%
34. Cc1nnc(N2CCC(CCn3ccnc3C)CC2)o1  -5.62%
35. COCCN1CC2(CCC1=O)CCN(Cc1nnc(C)o1)CC2  -5.52%
36. CCc1noc(CN(C)Cc2cc(Br)ccc2OC)n1  -5.46%
37. O=C(c1cnccn1)N1CCCC(Cc2cccc3ncccc23)C1 (configuration not stated)  -4.96%
38. c1ccc(-c2cnc(CNC3CCCN(c4cccnn4)C3)o2)cc1 (configuration not stated)  -4.5%
39. Cc1ccc(-c2ccnc(NCC(O)c3ccc(O)cc3)n2)c(C)n1 (configuration not stated)  -4.44%
40. NC(=O)CCn1ccc(NC(=O)c2ccc(OCC3CC3)cc2)n1  -3.84%
41. CCOc1cc(CNCc2nc(C)cc(=O)[nH]2)c(Cl)cc1OC(C)C  -3.61%
42. CCN(CCCc1ccccc1C)S(C)(=O)=O  -3.45%
43. CC(C)CN(CC(O)c1ccc(F)cc1)C(=O)c1cnsn1 (configuration not stated)  -3.42%
44. CC(C)[C@H](N)C(=O)N1CCSc2ccccc2C1  -3.37%
45. Cn1nc(CN2CCCC2)c2c1CN(C(=O)c1ccncc1F)CC2  -3.12%
46. CC(=O)Nc1nc(CN2CCn3c(C)nnc3C2)cs1  -2.82%
47. Cc1noc(C)c1CN(C)C(=O)NC1CCN(C2CC2)CC1  -2.65%
48. CCN(CC(=O)Nc1cc(Cl)ccc1C)C(=O)c1ccc(=O)[nH]n1  -2.64%
49. O=C(c1cnc(-c2ncccn2)s1)N1CCCC1Cn1cccn1 (configuration not stated)  -2.29%
50. CCn1ccc(CN(C)C(=O)CSc2nnc(N)s2)n1  -2.09%
51. COCCNC(=O)[C@]12COC[C@H]1CN(c1cc(OC)ncn1)C2  -1.98%
52. CC(C)(C)n1ccc(C(=O)N2CCCC(c3ncc[nH]3)C2)c1 (configuration not stated)  -1.92%
53. CNC(=O)C1CN(c2ccc(F)cc2)CCN1 (configuration not stated)  -1.89%
54. CC(Cc1cccc(F)c1)C(=O)NS(=O)(=O)c1cnn(C)c1 (configuration not stated)  -1.2%
55. CC(C)c1noc(C(C)N2CCN(CCCN3CCCC3=O)CC2)n1 (configuration not stated)  -0.928%
56. CN1CCN(C)C(CNC(=O)N(C)Cc2ccccc2Cl)C1 (configuration not stated)  -0.256%
57. Cc1noc(C)c1CN1CCO[C@H]2CN(C(=O)C3CCOCC3)C[C@H]21  -0.225%
58. CN(C)CCN(C)C(=O)c1ccccc1-n1cc(CN(C)C)cn1  -0.093%
59. Cc1nc(CN2CCc3ccc(S(N)(=O)=O)cc32)oc1C  0.0206%
60. CNC(=O)CN(C)CC1(c2ccc(Br)cc2)CC1  0.137%
61. Cn1cc(CN2CCCC3(COCCN(Cc4c[nH]nn4)C3)C2)cn1 (configuration not stated)  0.634%
62. O=C(NCC(Cc1cccc(F)c1)N1CCCC1=O)c1cnccn1 (configuration not stated)  0.835%
63. O=C(c1ccc2c(c1)COC2)N1CCC(Nc2ccccc2)CC1  1.02%
64. CC(NC(=O)C1CCCC1)c1nc(-c2ccccc2)c[nH]1 (configuration not stated)  1.26%
65. Cc1cc(C)n(CC2CCCN2C(=O)c2cncnc2C)n1 (configuration not stated)  1.29%
66. Cc1ncc(CNC(CCO)C2CCCCC2)s1 (configuration not stated)  1.31%
67. Cc1ncc2c(n1)CN(c1ncnc3[nH]ccc13)CC2  1.91%
68. Oc1ccccc1N1CCN(c2ncnc3sc4c(c23)CCNC4)CC1  2.19%
69. O=C(c1ccc2ccccc2n1)N1CCC2(CCN2c2ncccn2)C1 (configuration not stated)  2.64%
70. COc1cc(C)cc(C(C(=O)O)N(C)Cc2cnn(C)c2)c1OC (configuration not stated)  4.79%
71. COc1ccc(Cl)cc1NCC(=O)NCCc1ccccn1  5.95%
72. CCN(CC)C(=O)Nc1ccc(N2CCSCC2)cc1C  8.14%
73. Cc1nc(C)n(CC2CCCCN2CCCS(C)(=O)=O)n1 (configuration not stated)  9.04%
74. O=C(C1CC(=O)N(c2ccccc2Br)C1)N1CCCCCC1 (configuration not stated)  11.2%
75. Cc1ncc(CNCC2CCC(C(N)=O)CC2)n1-c1ccccc1 (configuration not stated)  11.9%
76. CNC(=O)C(C)(C)N1CCC[C@H]1C(=O)NC(C)(C)C  14.3%
77. CCC(O)CN1CCN(C(=O)c2ccc3c(c2)COC3)CC1 (configuration not stated)  14.3%
78. CC(C)(C)N1CCCN(C(=O)c2csc(S(N)(=O)=O)c2)CC1  15.7%
79. CC(C)c1n[nH]c(C2CN(C(=O)c3cn4ccccc4n3)CCO2)n1 (configuration not stated)  15.7%
80. CCN(c1ccc(C(=O)NCc2cc[nH]n2)cc1)C(C)C  22.1%
81. Cc1cc(C(=O)N2C[C@@H]3[C@@H](CN(C)CCc4ccccn4)[C@@H]3C2)c(C)o1  25.1%
82. Cn1cc(CN2CCC(F)(F)C3(CCN(c4cccc(F)c4)C3)C2)cn1 (configuration not stated)  43.6%
